Values of other authors, collected in patent US9687002B2, “Botanical antimicrobial microemulsions (BAMM)” (Indusco, Ltd., priority 2015, dated 2017).

System: various fungi that commonly infect toenails

## Cc1ccc(C(C)C)c(O)c1 [Thymol]
  effectiveness against fungi: effective
